Experimental data as given in paper PMC4251066, “Polyyne Hybrid Compounds from Notopterygium incisum with Peroxisome Proliferator-Activated Receptor Gamma Agonistic Effects” (Journal of Natural Products, 2014).

Legend:
human PPARγ = molecular target: T1, human PPARγ (Homo sapiens, UniProt P37231); assay: PPARγ luciferase reporter gene transactivation in HEK-293 cells; conditions: PPARγ-driven luciferase reporter assay, 18 h
T1 sequence (P37231 1-477 isoform P37231-2): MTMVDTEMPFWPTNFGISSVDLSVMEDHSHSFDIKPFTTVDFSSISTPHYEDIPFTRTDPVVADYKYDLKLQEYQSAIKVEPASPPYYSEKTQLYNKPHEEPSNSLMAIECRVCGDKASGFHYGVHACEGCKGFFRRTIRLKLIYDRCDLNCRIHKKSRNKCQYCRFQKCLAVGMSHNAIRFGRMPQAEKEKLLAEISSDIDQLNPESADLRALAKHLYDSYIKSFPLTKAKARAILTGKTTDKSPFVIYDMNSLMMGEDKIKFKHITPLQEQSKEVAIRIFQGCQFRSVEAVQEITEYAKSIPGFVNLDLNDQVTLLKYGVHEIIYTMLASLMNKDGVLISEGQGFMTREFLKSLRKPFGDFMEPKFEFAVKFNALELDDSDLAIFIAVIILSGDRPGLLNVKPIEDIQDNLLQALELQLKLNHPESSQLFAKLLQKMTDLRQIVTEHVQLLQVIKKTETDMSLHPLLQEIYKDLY
Experimental: For evaluation of PPARγ activation the test compounds were first dissolved in DMSO, divided into aliquots, and frozen at −20 °C until used. In all experiments, DMSO was applied as solvent control, and the final concentration of DMSO was always kept at ≤0.1%. The PPAR luciferase reporter plasmid (tk-PPREx3-luc) was a kind gift from Prof. Ronald M. Evans (Howard Hughes Medical Institute, La Jolla, CA, USA), the plasmid encoding enhanced green fluorescent protein (pEGFP-N1) was supplied by Clontech (Mountain View, CA, USA), and the plasmid encoding human PPARγ (pSG5-PL-hPPAR-γ1) was kindly supplied by Prof. Walter Wahli and Prof. Beatrice Desvergne (Center for Integrative Genomics, University of Lausanne, Switzerland).
The PPARγ luciferase reporter gene assay was performed as previously described.[27] Briefly, HEK-293 cells (ATCC, Manassas, VA, USA) were grown in DMEM with 2 mM glutamine, 10% FBS, 100 U/mL benzylpenicillin, and 100 μg/mL streptomycin. Cells were grown in 10 cm dishes (6 × 10^6 cells/dish) for 18 h and then transfected by the calcium phosphate precipitation method with 4 μg of plasmid encoding human PPARγ (pSG5-PL-hPPAR-γ1), 4 μg of reporter plasmid (tk-PPREx3-luc), and 2 μg of pEGFP-N1 as control for internal normalization.[28] After 6 h, the cells were transferred to 96-well plates (5 × 10^4 cells/well) in DMEM without phenol red supplemented with charcoal-stripped FBS, glutamine, and antibiotics. The cells were treated with different concentrations of the indicated compounds and incubated for 18 h. Cells were then lysed, and the luminescence of the firefly luciferase and the fluorescence of EGFP were quantified with a GeniosPro microplate reader (Tecan, Grödig, Austria). The luminescence was finally normalized to the EGFP-derived fluorescence from each well to account for differences in transfection efficiency or cell number.
Nonlinear regression (with sigmoidal dose response) was used to calculate the EC50 values and maximal fold activation.

[1] = tested on: NO production in LPS/IFNγ-stimulated RAW 264.7 macrophages; assay: Inhibition of NO production in stimulated RAW 264.7 macrophages (Griess assay); type: cell-based; conditions: Mus musculus, RAW264.7, 16 h incubation
Experimental: RAW 264.7 macrophages were stimulated with lipopolysaccharides (LPS) and interferon-γ (IFNγ) for induction of iNOS gene expression. The effects on NO production were determined by photometric quantification of nitrite accumulation in cell culture supernatants using the Griess assay compared with a sodium nitrite standard curve after 16 h of incubation with the respective sample as described by Baer et al. with slight modifications.[29],[30] Activity is referred to nitrite accumulation of cells treated with LPS/IFN-γ/DMSO (final concentration of 0.1% DMSO serves as solvent control). Test compounds were first dissolved in DMSO and then diluted with PBS to obtain respective concentrations. L-NMMA (N-monomethyl-L-arginine), a known nonselective inhibitor of all NOS isoforms, was used as a positive control. IC50 determination was performed in eight concentrations, each in at least three independent experiments, every time in duplicate.
IC50 values for effects on NO production were calculated with the SigmaPlot program package employing the four-parameter logistic regression model. Statistical differences were evaluated using one-way ANOVA. Differences with a p value < 0.05 were considered significant.

[2] = Stability on exposure to heat or sunlight (observed color change); type: physicochemical; conditions: elevated temperatures (45 °C) or direct sunlight at ambient temperature for an extended time; visible color change

Question: Which results are given for `C=C[C@H](C#CC#C[C@@H](O)/C=C\CCCCCCC)O[C@]1(C)CCC[C@]2(C)CC[C@@H](C(C)(C)O)C[C@H]21` [compound 1, Notoether A]?
Answer: EC50 (human PPARγ): 1900 nM; maximal fold activation (human PPARγ): 1.6

Question: For `C=C[C@@H](O)C#CC#C[C@H](/C=C\CCCCCCC)O[C@]1(C)CCC[C@]2(C)CC[C@@H](C(C)(C)O)C[C@H]21` [compound 2, Notoether B], which EC50 (human PPARγ) is on record?
Answer: 1700 nM

Question: And the maximal fold activation (human PPARγ)?
Answer: 2.0

Question: Which EC50 (human PPARγ) does the source give for `C=C[C@H](C#CC#C[C@@H](O)/C=C\CCCCCCC)O[C@]1(C)CC[C@@H](O)[C@]2(C)CC[C@@H](C(C)C)[C@@H](O)[C@H]21` [compound 3, Notoether C] here?
Answer: 2000 nM

Question: What about the maximal fold activation (human PPARγ) of the same molecule?
Answer: 1.6

Question: Which IC50 [1] does the source give for `C=C[C@@H](O)C#CC#C[C@H](/C=C\CCCCCCC)OC(=O)/C=C/c1ccc(O)c(OC)c1` [compound 9, Notoincisol A] here?
Answer: 14600 ± 700 nM

Question: What about the EC50 (human PPARγ) of the same molecule?
Answer: 2300 nM

Question: And the stability [2]?
Answer: unstable

Question: Which EC50 (human PPARγ) does the source give for `C=C[C@H]1OCc2cc3cc(OC)c(O)cc3c(C#C[C@@H](O)/C=C\CCCCCCC)c21` [compound 10, Notoincisol B] here?
Answer: 1700 nM

Question: What about the maximal fold activation (human PPARγ) of the same molecule?
Answer: 2.3
